Laboratory results from patent publication US20090137681A1, “Sirtuin Inhibiting Compounds” (priority 2005, published 2009).
Entries after “also recorded” stand apart in the source; their conditions may differ.

How the values were obtained:
yeast Sir2 (ySir2) = target: T1, yeast Sir2 (ySir2) (Saccharomyces cerevisiae, UniProt P06700); assay: Yeast Sir2 deacetylase inhibition, HDAC fluorescent activity assay (BIOMOL AK-500); assay type: biochemical; conditions: for inhibition at 100 µM: 100 μM inhibitor, read-out: % inhibtn (100 μM) ySir2; for inhibition at 100 µM / IC50: 200 μM NAD+, 30° C., 60 min; for ySir2 inhibitory activity, in words: compared with sirtinol 1
T1 construct: His; made in house
T1 sequence (P06700 whole entry): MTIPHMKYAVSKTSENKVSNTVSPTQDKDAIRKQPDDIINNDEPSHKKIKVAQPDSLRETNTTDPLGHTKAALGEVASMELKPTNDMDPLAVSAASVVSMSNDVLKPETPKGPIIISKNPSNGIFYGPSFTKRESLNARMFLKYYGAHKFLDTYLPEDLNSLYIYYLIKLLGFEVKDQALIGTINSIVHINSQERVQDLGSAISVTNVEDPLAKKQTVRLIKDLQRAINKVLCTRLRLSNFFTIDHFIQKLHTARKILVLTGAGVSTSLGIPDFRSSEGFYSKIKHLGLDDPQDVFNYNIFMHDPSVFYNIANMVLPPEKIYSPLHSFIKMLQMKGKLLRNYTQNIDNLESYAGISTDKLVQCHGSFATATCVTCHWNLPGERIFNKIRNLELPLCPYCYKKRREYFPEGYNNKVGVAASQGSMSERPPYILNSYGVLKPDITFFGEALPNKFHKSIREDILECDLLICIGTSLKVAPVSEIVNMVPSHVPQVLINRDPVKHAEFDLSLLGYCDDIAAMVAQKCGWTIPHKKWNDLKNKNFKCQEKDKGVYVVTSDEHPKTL
Experimental: (§1) Recombinant His-tagged yeast ySir2 and His-tagged hSIRT1 were purified and assayed for deacetylase activity using the HDAC fluorescent activity assay/drug discovery kit (AK-500, BIOMOL Research Laboratories).^55 This assay system allows detection of a fluorescent signal upon deacetylation of a histone substrate when treated with developer. Fluorescence was measured on a fluorometric reader (Wallac Victor III fluorescence plate reader Perkin Elmer) with excitation set at 360 nm and emission detection set at 450 nm. Reactions consisted of either 3 μg of ySir2 or 1 μg of SIRT1, incubated with 250 μM acetylated histone substrate, 1 mM dithiothreitol, and a range of inhibitor concentrations as described. Reactions with the yeast and human proteins were carried out at 30 and 37° C., respectively, for 60 min. Assays were performed in the presence of 200 μM NAD^+ and each of the inhibitors at 0, 20, 75, 100, 150, or 300 μM concentrations.
as §1, with “In Vitro Yeast Sir2 Enzyme Inhibition. Recombinant” for “Recombinant”, “Sir2p was” for “ySir2 and His-tagged hSIRT1 were”, “Laboratories).^42” for “Laboratories).^55”, “of” for “of either”, “ySir2” for “ySir2 or 1 μg of SIRT1,”

human SIRT1 (hSIRT1) = target: T2, human SIRT1 (hSIRT1) (Homo sapiens, UniProt Q96EB6); assay: Human SIRT1 deacetylase inhibition, HDAC fluorescent activity assay (BIOMOL AK-500); assay type: biochemical; conditions: for inhibition at 100 µM: 100 μM inhibitor, read-out: % inhibtn (100 μM) hSIRT1; for inhibition at 100 µM / IC50: 200 μM NAD+, 37° C., 60 min; for fold more potent than sirtinol (1) in inhibiting hSIRT1: relative to sirtinol 1
T2 construct: His; made in house
T2 sequence (Q96EB6 1-747): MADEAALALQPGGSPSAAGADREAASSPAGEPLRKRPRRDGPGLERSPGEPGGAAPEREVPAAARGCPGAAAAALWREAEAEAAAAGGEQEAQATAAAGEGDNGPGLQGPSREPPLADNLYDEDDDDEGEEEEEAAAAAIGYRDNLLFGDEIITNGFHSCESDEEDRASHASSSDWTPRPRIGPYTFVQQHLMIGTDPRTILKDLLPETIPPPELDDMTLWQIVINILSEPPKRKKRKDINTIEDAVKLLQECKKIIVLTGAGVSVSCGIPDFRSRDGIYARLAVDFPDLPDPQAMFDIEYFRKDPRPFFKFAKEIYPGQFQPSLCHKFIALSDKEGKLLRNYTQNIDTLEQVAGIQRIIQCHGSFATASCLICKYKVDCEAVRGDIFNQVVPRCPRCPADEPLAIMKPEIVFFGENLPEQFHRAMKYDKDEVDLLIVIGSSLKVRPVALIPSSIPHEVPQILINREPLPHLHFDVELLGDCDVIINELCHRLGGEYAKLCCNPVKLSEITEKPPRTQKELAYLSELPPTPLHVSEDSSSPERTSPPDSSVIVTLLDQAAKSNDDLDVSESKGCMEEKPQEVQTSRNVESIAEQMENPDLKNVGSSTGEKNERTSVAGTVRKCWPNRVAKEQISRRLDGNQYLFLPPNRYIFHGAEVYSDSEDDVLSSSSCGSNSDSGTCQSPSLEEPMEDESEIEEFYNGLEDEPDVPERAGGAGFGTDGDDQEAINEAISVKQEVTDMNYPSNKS
Experimental: as §1

SIRT2 isoform 1 = target: T3, SIRT2 isoform 1 (Homo sapiens, UniProt Q8IXJ6); assay: SIRT2 deacetylase inhibition, HDAC fluorescent activity assay (BIOMOL AK-500); assay type: biochemical; conditions: for IC50: dose response curve; for inhibition at 100 µM: read-out: SIRT2 % inhibition at 100 μM, 100 μM compound; for fold more potent than 1 in inhibiting SIRT2: relative to sirtinol 1
T3 construct: His; made in house
T3 sequence (Q8IXJ6 1-389): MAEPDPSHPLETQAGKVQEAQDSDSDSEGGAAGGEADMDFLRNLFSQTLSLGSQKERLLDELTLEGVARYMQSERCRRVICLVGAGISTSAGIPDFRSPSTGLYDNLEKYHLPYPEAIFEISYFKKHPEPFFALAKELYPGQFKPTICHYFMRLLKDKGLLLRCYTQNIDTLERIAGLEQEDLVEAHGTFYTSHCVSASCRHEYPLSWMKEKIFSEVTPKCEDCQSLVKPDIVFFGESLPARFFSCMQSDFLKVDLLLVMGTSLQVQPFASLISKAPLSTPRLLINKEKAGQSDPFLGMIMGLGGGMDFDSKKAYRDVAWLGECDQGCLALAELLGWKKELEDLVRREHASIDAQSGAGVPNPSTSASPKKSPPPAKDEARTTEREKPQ
Experimental: as §1
Recombinant His-tagged SIRT2 isoform 1 was purified and assayed for deacetylase activity using the HDAC fluorescent activity assay/drug discovery kit (AK-500, BIOMOL Research Laboratories) as described above. […] A dose response curve for determining the IC50 was also done.

[1] = system: Sir2-mediated telomeric URA3 gene silencing; assay: Telomeric silencing assay (phenotypic screening, URA3 reporter, 5-FOA); assay type: cell-based, yeast; conditions: relative to sirtinol 1, plates with 5-FOA, densitometric scanning at 16.7 μM
Experimental: Wildtype (AYH2.45)^50 and sir2Δ (STY30)^50 strains were grown to exponential phase (0.5 OD/mL) in YPD medium and cells were spotted in 10-fold dilutions on SC medium containing 1 mg/mL 5-fluoroorotic acid (5-FOA).^51 When appropriate, cells were grown on plates containing 0.18% DMSO and the specified concentration of Sir2 inhibitor (5.6 and 16.7 μM). Cell growth was evaluated after 3-4 d at 30° C.
The yeast strain contained a URA3 reporter gene integrated into the sub-telomeric region of chromosome VII-L where it is silenced by Sir2.^50 In the presence of 5-fluoroorotic acid (5-FOA), loss of transcriptional silencing in this strain and the corresponding increase in URA3 expression is lethal (FIG. 2).^51
A semi-quantitative assay of the spots on the plates treated with 5-FOA and the Sir2 inhibitors at 16.7 μM concentration was performed by densitometric scanning of the plates.

**Q.** Which inhibition at 100 µM (yeast Sir2 (ySir2)) does the source give for `O=C(O)c1ccccc1/N=C/c1c(O)ccc2ccccc12` [Compound 4] here?
**A.** 5%

**Q.** What about the inhibition at 100 µM (human SIRT1 (hSIRT1)) of the same compound?
**A.** 26%

**Q.** And the melting point?
**A.** 180 to 182 °C

**Q.** With `CC(NC(=O)c1ccc(/N=C/c2c(O)ccc3ccccc23)cc1)c1ccccc1` (stereo not shown) [Compound 8, 4-[(2-hydroxy-1-naphthalenylmethylene)amino]-N-(1-phenylethyl)benzamide] as the compound, how does the inhibition at 100 µM (yeast Sir2 (ySir2)) read?
**A.** 59.8%

**Q.** What about the IC50 (yeast Sir2 (ySir2)) of the same compound?
**A.** 33 ± 1 µM

**Q.** What about the “ySir2 inhibitory activity, in words” value (yeast Sir2 (ySir2)) of the same compound?
**A.** IC50 values similar to that of 1; also recorded: IC50 values similar to those of 1

**Q.** And the “fold more potent than sirtinol (1) in inhibiting ySir2” value (yeast Sir2 (ySir2); relative to sirtinol 1)?
**A.** 1.5 fold

**Q.** And the inhibition at 100 µM (human SIRT1 (hSIRT1))?
**A.** 82.6%

**Q.** What about the IC50 (human SIRT1 (hSIRT1)) of the same compound?
**A.** 13 µM

**Q.** What about the “fold more potent than sirtinol (1) in inhibiting hSIRT1” value (human SIRT1 (hSIRT1)) of the same compound?
**A.** 10 fold

**Q.** What about the “fold more potent than sirtinol (1) in inhibiting hSIRT1” value (human SIRT1 (hSIRT1); listed as para-sirtinol) of the same compound?
**A.** 8 fold

**Q.** What about the “SIRT2 inhibitory potency, in words” value (SIRT2 isoform 1; among compounds 1, 7-10) of the same compound?
**A.** most potent

**Q.** And the IC50 (SIRT2 isoform 1)?
**A.** 25.9 µM

**Q.** What about the inhibition at 100 µM (SIRT2 isoform 1) of the same compound?
**A.** 80.2%

**Q.** And the “fold more potent than 1 in inhibiting SIRT2” value (SIRT2 isoform 1)?
**A.** 2.2 fold

**Q.** What about the “Sir2 inhibitory potency in phenotypic screening, in words” value (“Sir2 inhibitory potency” for short) ([1]; listed as para-sirtinol) of the same compound?
**A.** more potent Sir2 inhibitory activity than sirtinol

**Q.** What does the source list for `N#Cc1ccccc1/N=C/c1c(O)ccc2ccccc12` [Compound 6]?
**A.** inhibition at 100 µM (yeast Sir2 (ySir2)): 15%; fold less potent than sirtinol (1) in inhibiting ySir2 (yeast Sir2 (ySir2); relative to sirtinol 1): 4 fold; inhibition at 100 µM (human SIRT1 (hSIRT1)): 20%; melting point: 139 to 141 °C

**Q.** Which inhibition at 100 µM (yeast Sir2 (ySir2)) does the source give for `CC(NC(=O)c1ccccc1/N=C/c1c(O)ccc2ccccc12)c1ccccc1` (racemic) [Compound 1, sirtinol, reference compound] here?
**A.** 65.6%

**Q.** What about the inhibition at 100 µM (human SIRT1 (hSIRT1)) of the same compound?
**A.** 44.5%

**Q.** And the inhibition at 100 µM (SIRT2 isoform 1)?
**A.** 71%

**Q.** Which results are given for `CCOC(=O)c1ccccc1/N=C/c1c(O)ccc2ccccc12` [Compound 3]?
**A.** inhibition at 100 µM (yeast Sir2 (ySir2)): 20%; fold less potent than sirtinol (1) in inhibiting ySir2 (yeast Sir2 (ySir2); relative to sirtinol 1): 3 fold; inhibition at 100 µM (human SIRT1 (hSIRT1)): 9%

**Q.** Which inhibition at 100 µM (yeast Sir2 (ySir2)) does the source give for `CC(NC(=O)c1ccccc1/N=C/c1cccc2ccccc12)c1ccccc1` (stereo not shown) [Compound 2, 2-[(1-naphthalenylmethylene)amino]-N-(1-phenylethyl)benzamide] here?
**A.** 10%

**Q.** And the inhibition at 100 µM (human SIRT1 (hSIRT1))?
**A.** 33%

**Q.** What about the melting point of the same compound?
**A.** 101 to 103 °C

**Q.** For `NC(=O)c1ccccc1/N=C/c1c(O)ccc2ccccc12` [Compound 5], which inhibition at 100 µM (yeast Sir2 (ySir2)) is on record?
**A.** 0 to 5%

**Q.** What about the “ySir2 inhibitory activity, in words” value (yeast Sir2 (ySir2)) of the same compound?
**A.** totally inactive; also recorded: total loss of Sir2 inhibitory activity

**Q.** What about the “hSIRT1 inhibitory activity, in words” value (human SIRT1 (hSIRT1)) of the same compound?
**A.** totally inactive

**Q.** What about the inhibition at 100 µM (human SIRT1 (hSIRT1)) of the same compound?
**A.** 0 to 5%

**Q.** And the melting point?
**A.** 238 to 240 °C

**Q.** Which inhibition at 100 µM (yeast Sir2 (ySir2)) does the source give for `CC(NC(=O)c1cccc(/N=C/c2c(O)ccc3ccccc23)c1)c1ccccc1` (stereo not shown) [Compound 7, 3-[(2-hydroxy-1-naphthalenylmethylene)amino]-N-(1-phenylethyl)benzamide] here?
**A.** 53.9%

**Q.** What about the IC50 (yeast Sir2 (ySir2)) of the same compound?
**A.** 72 ± 3 µM

**Q.** What about the “ySir2 inhibitory activity, in words” value (yeast Sir2 (ySir2)) of the same compound?
**A.** IC50 values similar to that of 1; also recorded: IC50 values similar to those of 1

**Q.** What about the “fold less potent than sirtinol (1) in inhibiting ySir2” value (yeast Sir2 (ySir2); relative to sirtinol 1) of the same compound?
**A.** 1.5 fold

**Q.** What about the inhibition at 100 µM (human SIRT1 (hSIRT1)) of the same compound?
**A.** 63%

**Q.** What about the IC50 (human SIRT1 (hSIRT1)) of the same compound?
**A.** 59 ± 2 µM

**Q.** And the “fold more potent than sirtinol (1) in inhibiting hSIRT1” value (human SIRT1 (hSIRT1))?
**A.** 2.2 fold

**Q.** And the “fold more potent than sirtinol (1) in inhibiting hSIRT1” value (human SIRT1 (hSIRT1); listed as meta-sirtinol)?
**A.** 2 fold

**Q.** What about the IC50 (SIRT2 isoform 1) of the same compound?
**A.** 35.7 µM

**Q.** What about the inhibition at 100 µM (SIRT2 isoform 1) of the same compound?
**A.** 79.2%

**Q.** And the “fold more potent than 1 in inhibiting SIRT2” value (SIRT2 isoform 1)?
**A.** 1.6 fold

**Q.** What about the “Sir2 inhibitory potency” value [1] of the same compound?
**A.** more potent inhibitors than 1; also recorded: more potent than sirtinol; also recorded: same potent Sir2 inhibitory as 1

**Q.** What about the “Sir2 inhibitory potency” value ([1]; listed as meta-sirtinol) of the same compound?
**A.** more potent Sir2 inhibitory activity than sirtinol

**Q.** With `C[C@@H](NC(=O)c1ccccc1/N=C/c1c(O)ccc2ccccc12)c1ccccc1` [Compound 9, (R)-sirtinol] as the compound, how does the inhibition at 100 µM (yeast Sir2 (ySir2)) read?
**A.** 55.5%

**Q.** And the “ySir2 inhibitory activity, in words” value (yeast Sir2 (ySir2))?
**A.** IC50 values similar to that of sirtinol 1

**Q.** What about the inhibition at 100 µM (human SIRT1 (hSIRT1)) of the same compound?
**A.** 61.8%

**Q.** What about the inhibition at 100 µM (SIRT2 isoform 1) of the same compound?
**A.** 72.2%

**Q.** With `C[C@H](NC(=O)c1ccccc1/N=C/c1c(O)ccc2ccccc12)c1ccccc1` [Compound 10, (S)-2-[(2-hydroxy-1-naphthalenylmethylene)amino]-N-(1-phenylethyl)benzamide] as the compound, how does the inhibition at 100 µM (yeast Sir2 (ySir2)) read?
**A.** 57%

**Q.** And the “ySir2 inhibitory activity, in words” value (yeast Sir2 (ySir2))?
**A.** IC50 values similar to that of sirtinol 1

**Q.** What about the inhibition at 100 µM (human SIRT1 (hSIRT1)) of the same compound?
**A.** 60.2%

**Q.** What about the inhibition at 100 µM (SIRT2 isoform 1) of the same compound?
**A.** 73.5%
